Columns and labels:
persian speedwell [1] = experiment: Test Example 5: herbicidal effect by foliage application, plastic box (Table 20, symbol R); format: in vivo, Persian speedwell (Veronica persica); conditions: foliage application, 294 g/ha, 3 weeks after application
Method in brief: (§1)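 Sow seeds spot-wise in sterilized diluvial soil; cover with ~1.5 cm soil. Grow 14 days in greenhouse, 25° C. to 30° C. Spray foliage with emulsion diluted to predetermined amount. Rate effect after 3 weeks.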

southern crabgrass [2] = experiment: Test Example 4: herbicidal effect by soil treatment (Table 19, symbol F); format: in vivo, southern crabgrass (Digitaria ciliaris); conditions: 294 g/ha
Method in brief: (§2)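 Applied as a water-diluted emulsion, the compound was sprayed onto soil covering newly sown seeds. Evaluation came three weeks after application, in a greenhouse held at 25° C. to 30° C.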

lambsquarters [3] = experiment: Test Example 4: herbicidal effect by soil treatment (Table 19, symbol O); format: in vivo, lambsquarters (Chenopodium album); conditions: 294 g/ha
Method in brief: as §2

Chinese sprangletop = experiment: Test Example 3: herbicidal effect by foliage application, Wagner pot (Table 18, symbol D); format: in vivo, chinese sprangletop (Leptochloa chinensis); conditions: 294 g/ha
Method in brief: (§3)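 Plants were sown in alluvial soil held under 0.1–0.5 cm standing water and grown 14 days in a greenhouse at 25–30 °C. An emulsifiable formulation, water-diluted to the set dose, was then sprayed onto the foliage, and effects were scored three weeks later using previously defined criteria.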

blackgrass [4] = experiment: Test Example 5: herbicidal effect by foliage application, plastic box (Table 20, symbol J); format: in vivo, blackgrass (Alopecurus myosuroides); conditions: foliage application, 294 g/ha, 3 weeks after application
Method in brief: as §1

wild oat [5] = experiment: Test Example 4: herbicidal effect by soil treatment (Table 19, symbol I); format: in vivo, wild oat (Avena fatua); conditions: 294 g/ha
Method in brief: as §2

chickweed = experiment: Test Example 4: herbicidal effect by soil treatment (Table 19, symbol P); format: in vivo, common chickweed (Stellaria media); conditions: 294 g/ha
Method in brief: as §2

southern crabgrass [6] = experiment: Test Example 5: herbicidal effect by foliage application, plastic box (Table 20, symbol F); format: in vivo, southern crabgrass (Digitaria ciliaris); conditions: foliage application, 294 g/ha, 3 weeks after application
Method in brief: as §1

green foxtail [7] = experiment: Test Example 4: herbicidal effect by soil treatment (Table 19, symbol G); format: in vivo, green foxtail (Setaria viridis); conditions: 294 g/ha
Method in brief: as §2

barnyard grass [8] = experiment: Test Example 4: herbicidal effect by soil treatment (Table 19, symbol H); format: in vivo, barnyard grass (Echinochloa crus-galli); conditions: 294 g/ha
Method in brief: as §2

wild oat [9] = experiment: Test Example 5: herbicidal effect by foliage application, plastic box (Table 20, symbol I); format: in vivo, wild oat (Avena fatua); conditions: foliage application, 294 g/ha, 3 weeks after application
Method in brief: as §1

windgrass [10] = experiment: Test Example 5: herbicidal effect by foliage application, plastic box (Table 20, symbol L); format: in vivo, windgrass (Apera spica-venti); conditions: foliage application, 294 g/ha, 3 weeks after application
Method in brief: as §1

velvetleaf [11] = experiment: Test Example 5: herbicidal effect by foliage application, plastic box (Table 20, symbol M); format: in vivo, velvetleaf (Abutilon theophrasti); conditions: foliage application, 294 g/ha, 3 weeks after application
Method in brief: as §1

redroot pigweed = experiment: Test Example 4: herbicidal effect by soil treatment (Table 19, symbol N); format: in vivo, redroot pigweed (Amaranthus retroflexus); conditions: 294 g/ha
Method in brief: as §2

blackgrass [12] = experiment: Test Example 4: herbicidal effect by soil treatment (Table 19, symbol J); format: in vivo, blackgrass (Alopecurus myosuroides); conditions: 294 g/ha
Method in brief: as §2

lambsquarters [13] = experiment: Test Example 5: herbicidal effect by foliage application, plastic box (Table 20, symbol O); format: in vivo, lambsquarters (Chenopodium album); conditions: foliage application, 294 g/ha, 3 weeks after application
Method in brief: as §1

windgrass [14] = experiment: Test Example 4: herbicidal effect by soil treatment (Table 19, symbol L); format: in vivo, windgrass (Apera spica-venti); conditions: 294 g/ha
Method in brief: as §2

barnyard grass [15] = experiment: Test Example 3: herbicidal effect by foliage application, Wagner pot (Table 18, symbol H); format: in vivo, barnyard grass (Echinochloa crus-galli); conditions: 294 g/ha
Method in brief: as §3

Italian ryegrass [16] = experiment: Test Example 4: herbicidal effect by soil treatment (Table 19, symbol K); format: in vivo, Italian ryegrass (Lolium multiflorum); conditions: 294 g/ha
Method in brief: as §2

persian speedwell [17] = experiment: Test Example 4: herbicidal effect by soil treatment (Table 19, symbol R); format: in vivo, Persian speedwell (Veronica persica); conditions: 294 g/ha
Method in brief: as §2

Italian ryegrass [18] = experiment: Test Example 5: herbicidal effect by foliage application, plastic box (Table 20, symbol K); format: in vivo, Italian ryegrass (Lolium multiflorum); conditions: foliage application, 294 g/ha, 3 weeks after application
Method in brief: as §1

green foxtail [19] = experiment: Test Example 5: herbicidal effect by foliage application, plastic box (Table 20, symbol G); format: in vivo, green foxtail (Setaria viridis); conditions: foliage application, 294 g/ha, 3 weeks after application
Method in brief: as §1

false cleavers = experiment: Test Example 5: herbicidal effect by foliage application, plastic box (Table 20, symbol Q); format: in vivo, false cleavers (Galium spurium); conditions: foliage application, 294 g/ha, 3 weeks after application
Method in brief: as §1

barnyard grass [20] = experiment: Test Example 5: herbicidal effect by foliage application, plastic box (Table 20, symbol H); format: in vivo, barnyard grass (Echinochloa crus-galli); conditions: foliage application, 294 g/ha, 3 weeks after application
Method in brief: as §1

rice flat sedge = experiment: Test Example 3: herbicidal effect by foliage application, Wagner pot (Table 18, symbol E); format: in vivo, rice flat sedge (Cyperus iria); conditions: 294 g/ha
Method in brief: as §3

velvetleaf [21] = experiment: Test Example 4: herbicidal effect by soil treatment (Table 19, symbol M); format: in vivo, velvetleaf (Abutilon theophrasti); conditions: 294 g/ha
Method in brief: as §2

COc1ccccc1-c1sc2ccc(F)cc2c1-c1c(O)c(C)nn(C)c1=O [2-024]
effect on persian speedwell (R) (persian speedwell [1]): 5 (Herbicidal rate of 90% or more (almost completely withered))
herbicidal effect rating, F: southern crabgrass (southern crabgrass [2]): 3 (Herbicidal rate of 40% or more and less than 70%)
herbicidal effect rating, O: lambsquarters (lambsquarters [3]): 5 (Herbicidal rate of 90% or more (almost completely withered))
herbicidal effect on D (Chinese sprangletop), rating 0-5 (Chinese sprangletop): 3 (Herbicidal rate of 40% or more and less than 70%)
effect on blackgrass (J) (blackgrass [4]): 5 (Herbicidal rate of 90% or more (almost completely withered))
herbicidal effect rating, I: wild oat (wild oat [5]): 0 (Herbicidal rate of 5% or less (almost no effect))
herbicidal effect rating, P: chickweed (chickweed): 3 (Herbicidal rate of 40% or more and less than 70%)
effect on southern crabgrass (F) (southern crabgrass [6]): 3 (Herbicidal rate of 40% or more and less than 70%)
herbicidal effect rating, G: green foxtail (green foxtail [7]): 3 (Herbicidal rate of 40% or more and less than 70%)
herbicidal effect rating, H: barnyard grass (barnyard grass [8]): 1 (Herbicidal rate of 5% or more and less than 20%)
effect on wild oat (I) (wild oat [9]): 4 (Herbicidal rate of 70% or more and less than 90%)
effect on windgrass (L) (windgrass [10]): 4 (Herbicidal rate of 70% or more and less than 90%)
effect on velvetleaf (M) (velvetleaf [11]): 5 (Herbicidal rate of 90% or more (almost completely withered))
herbicidal effect rating, N: redroot pigweed (redroot pigweed): 5 (Herbicidal rate of 90% or more (almost completely withered))
herbicidal effect rating, J: blackgrass (blackgrass [12]): 2 (Herbicidal rate of 20% or more and less than 40%)
effect on lambsquarters (O) (lambsquarters [13]): 5 (Herbicidal rate of 90% or more (almost completely withered))
herbicidal effect rating, L: windgrass (windgrass [14]): 0 (Herbicidal rate of 5% or less (almost no effect))
herbicidal effect on H (barnyard grass), rating 0-5 (barnyard grass [15]): 4 (Herbicidal rate of 70% or more and less than 90%)
herbicidal effect rating, K: Italian ryegrass (Italian ryegrass [16]): 0 (Herbicidal rate of 5% or less (almost no effect))
herbicidal effect rating, R: persian speedwell (persian speedwell [17]): 4 (Herbicidal rate of 70% or more and less than 90%)
effect on Italian ryegrass (K) (Italian ryegrass [18]): 3 (Herbicidal rate of 40% or more and less than 70%)
effect on green foxtail (G) (green foxtail [19]): 4 (Herbicidal rate of 70% or more and less than 90%)
effect on false cleavers (Q) (false cleavers): 5 (Herbicidal rate of 90% or more (almost completely withered))
effect on barnyard grass (H) (barnyard grass [20]): 5 (Herbicidal rate of 90% or more (almost completely withered))
herbicidal effect on E (rice flat sedge), rating 0-5 (rice flat sedge): 4 (Herbicidal rate of 70% or more and less than 90%)
herbicidal effect rating, M: velvetleaf (velvetleaf [21]): 2 (Herbicidal rate of 20% or more and less than 40%)
